Experimental data: the NIST ThermoML archive (doi:10.1016/j.jct.2016.02.010)
± gives the expanded uncertainty stated by the source.

What was measured:
[1] = Crystal; for vapor or sublimation pressure: Calculated from knudsen effusion weight loss; for Normal melting temperature: DTA
[2] = Molar enthalpy of transition or fusion; details: Crystal; DSC
[3] = molar heat capacity at constant pressure; details: 101.33 kPa, Small sample (50 mg) DSC

OC(c1ccccc1)c1ccccc1 [diphenylmethanol]
Details | mass density [kg/m3]
[1], 298 K, 101.33 kPa, Pycnometric method | 1210 ± 40

[1]
Details | vapor or sublimation pressure [kPa]
301.97 K | 0.000128 ± 7e-06
304.52 K | 0.00018 ± 1e-05
305.16 K | 0.000198 ± 1.1e-05
308.1 K | 0.00028 ± 1.5e-05
311.41 K | 0.000446 ± 2.4e-05
314.06 K | 0.00061 ± 3e-05
317.02 K | 0.00091 ± 5e-05

Details | Molar enthalpy of transition or fusion [kcal/mol] | Normal melting temperature [°C]
[1] | – | 66.2 ± 0.8
[2] | 5.66 ± 0.12 | –

[3], Crystal
Details | molar heat capacity at constant pressure [J/K/mol]
259.15 K | 202.8 ± 6.7
260.15 K | 203.3 ± 6.7
261.15 K | 203.9 ± 6.8
262.15 K | 204.6 ± 6.8
263.15 K | 205.2 ± 6.8
264.15 K | 206.1 ± 6.8
265.15 K | 206.8 ± 6.9
266.15 K | 207.6 ± 6.9
267.15 K | 208.5 ± 6.9
268.15 K | 209.5 ± 7
269.15 K | 210.3 ± 7
270.15 K | 211.1 ± 7
271.15 K | 211.7 ± 7
272.15 K | 212.5 ± 7.1
273.15 K | 213.8 ± 7.1
274.15 K | 214.1 ± 7.1
275.15 K | 215.2 ± 7.1
276.15 K | 215.9 ± 7.2
277.15 K | 216.9 ± 7.2
278.15 K | 216.8 ± 7.2
279.15 K | 217.6 ± 7.2
280.15 K | 218.5 ± 7.2
281.15 K | 219.4 ± 7.3
282.15 K | 220.2 ± 7.3
283.15 K | 221 ± 7.3
284.15 K | 221.8 ± 7.4
285.15 K | 222.8 ± 7.4
286.15 K | 223.3 ± 7.4
287.15 K | 224.3 ± 7.4
288.15 K | 225 ± 7.5
289.15 K | 225.8 ± 7.5
290.15 K | 226.5 ± 7.5
291.15 K | 227.4 ± 7.5
292.15 K | 228.2 ± 7.6
293.15 K | 229.1 ± 7.6
294.15 K | 229.9 ± 7.6
295.15 K | 230.7 ± 7.7
296.15 K | 231.9 ± 7.7
297.15 K | 232 ± 7.7
298.15 K | 233 ± 7.7
299.15 K | 233.7 ± 7.8
300.15 K | 234.5 ± 7.8
301.15 K | 235.4 ± 7.8
302.15 K | 236.2 ± 7.8
303.15 K | 237 ± 7.9
304.15 K | 237.8 ± 7.9
305.15 K | 238.7 ± 7.9
306.15 K | 239.6 ± 7.9
307.15 K | 240.7 ± 8
308.15 K | 241.8 ± 8
309.15 K | 242.5 ± 8
310.15 K | 243.3 ± 8.1
311.15 K | 244.2 ± 8.1
312.15 K | 245.2 ± 8.1
313.15 K | 246 ± 8.2
314.15 K | 247 ± 8.2
315.15 K | 247.8 ± 8.2
316.15 K | 248.8 ± 8.3
317.15 K | 249.8 ± 8.3
318.15 K | 250.7 ± 8.3
319.15 K | 251.7 ± 8.4
320.15 K | 252.5 ± 8.4
321.15 K | 253.5 ± 8.4
322.15 K | 254.4 ± 8.4
323.15 K | 255.3 ± 8.5
324.15 K | 256.4 ± 8.5
325.15 K | 257.4 ± 8.5
326.15 K | 258.5 ± 8.6
327.15 K | 259.5 ± 8.6
328.15 K | 260.7 ± 8.6
329.15 K | 261.8 ± 8.7
330.15 K | 263.1 ± 8.7
331.15 K | 265.1 ± 8.8
332.15 K | 267 ± 8.9

OC(c1ccccc1)(c1ccccc1)c1ccccc1 [triphenylmethanol]
[1]
Details | vapor or sublimation pressure [kPa]
342.25 K | 3.35e-06 ± 1.9e-07
344.44 K | 4.39e-06 ± 2.5e-07
347.56 K | 6.8e-06 ± 4e-07
351.64 K | 1.11e-05 ± 6e-07
353.37 K | 1.42e-05 ± 8e-07
356.81 K | 1.93e-05 ± 1e-06
358.08 K | 2.17e-05 ± 1.2e-06

Details | Molar enthalpy of transition or fusion [kcal/mol] | Normal melting temperature [°C]
[1] | – | 162.1 ± 0.5
[2] | 6.52 ± 0.167 | –

[3], Crystal
Details | molar heat capacity at constant pressure [J/K/mol]
259.15 K | 283 ± 9.4
260.15 K | 283.6 ± 9.4
261.15 K | 284.9 ± 9.5
262.15 K | 285.6 ± 9.5
263.15 K | 286.4 ± 9.5
264.15 K | 288.3 ± 9.6
265.15 K | 289.5 ± 9.6
266.15 K | 290.4 ± 9.6
267.15 K | 291.2 ± 9.7
268.15 K | 290.8 ± 9.6
269.15 K | 292.3 ± 9.7
270.15 K | 293.4 ± 9.7
271.15 K | 294.3 ± 9.8
272.15 K | 295.3 ± 9.8
273.15 K | 296.5 ± 9.8
274.15 K | 297.4 ± 9.9
275.15 K | 297.3 ± 9.9
276.15 K | 298.6 ± 9.9
277.15 K | 299.8 ± 9.9
278.15 K | 301.2 ± 10
279.15 K | 302.1 ± 10
280.15 K | 302.8 ± 10
281.15 K | 303.4 ± 10
282.15 K | 304.7 ± 10
283.15 K | 306 ± 10
284.15 K | 305.9 ± 10
285.15 K | 307 ± 10
286.15 K | 307.4 ± 10
287.15 K | 308.9 ± 10
288.15 K | 309.3 ± 10
289.15 K | 310.1 ± 10
290.15 K | 310.6 ± 10
291.15 K | 311.8 ± 10
292.15 K | 312.5 ± 10
293.15 K | 312.9 ± 10
294.15 K | 313.5 ± 10
295.15 K | 314.7 ± 10
296.15 K | 315.1 ± 10
297.15 K | 316.1 ± 10
298.15 K | 316.4 ± 10
299.15 K | 316.9 ± 10
300.15 K | 319.7 ± 11
301.15 K | 320.5 ± 11
302.15 K | 321.2 ± 11
303.15 K | 322.1 ± 11
304.15 K | 323 ± 11
305.15 K | 324.7 ± 11
306.15 K | 325.1 ± 11
307.15 K | 326.1 ± 11
308.15 K | 327.2 ± 11
309.15 K | 328.5 ± 11
310.15 K | 329.3 ± 11
311.15 K | 330 ± 11
312.15 K | 331.2 ± 11
313.15 K | 331.9 ± 11
314.15 K | 332.7 ± 11
315.15 K | 333.4 ± 11
316.15 K | 334.4 ± 11
317.15 K | 335.9 ± 11
318.15 K | 336.8 ± 11
319.15 K | 337.6 ± 11
320.15 K | 338.3 ± 11
321.15 K | 339.8 ± 11
322.15 K | 340.7 ± 11
323.15 K | 343.5 ± 11
324.15 K | 344.4 ± 11
325.15 K | 345.5 ± 12
326.15 K | 346.3 ± 12
327.15 K | 347.4 ± 12
328.15 K | 348.5 ± 12
329.15 K | 349.7 ± 12
330.15 K | 350.6 ± 12
331.15 K | 351.4 ± 12
332.15 K | 352.2 ± 12
333.15 K | 353.2 ± 12
334.15 K | 354.1 ± 12
335.15 K | 355 ± 12
336.15 K | 356.1 ± 12
337.15 K | 357.1 ± 12
338.15 K | 358.3 ± 12
339.15 K | 359.3 ± 12
340.15 K | 359.9 ± 12
341.15 K | 360.8 ± 12
342.15 K | 362 ± 12
343.15 K | 363.1 ± 12
344.15 K | 363.9 ± 12
345.15 K | 364.6 ± 12
346.15 K | 365.7 ± 12
347.15 K | 366.7 ± 12
348.15 K | 367.5 ± 12
349.15 K | 368.3 ± 12
350.15 K | 369.4 ± 12
351.15 K | 370.6 ± 12
352.15 K | 371.3 ± 12
353.15 K | 374.6 ± 12
354.15 K | 375.6 ± 12
355.15 K | 376.7 ± 12
356.15 K | 378.1 ± 12
357.15 K | 379 ± 13
358.15 K | 379.6 ± 13
359.15 K | 380.8 ± 13
360.15 K | 381.6 ± 13
361.15 K | 382.3 ± 13
362.15 K | 383 ± 13
363.15 K | 383.8 ± 13
364.15 K | 384.8 ± 13
365.15 K | 386.1 ± 13
366.15 K | 387.2 ± 13
367.15 K | 387.8 ± 13
368.15 K | 389.1 ± 13
369.15 K | 391 ± 13
370.15 K | 393.2 ± 13
371.15 K | 395.8 ± 13
372.15 K | 396.3 ± 13
373.15 K | 397.3 ± 13

CC(O)c1ccccc1 (configuration not stated) [1-phenylethanol]
Details | Molar enthalpy of transition or fusion [kcal/mol] | Normal melting temperature [°C]
[1] | – | 18.6 ± 0.8
[2] | 3.82 ± 0.478 | –

[3], Liquid
Details | molar heat capacity at constant pressure [J/K/mol]
297.15 K | 262.4 ± 8.7
298.15 K | 263.1 ± 8.7
299.15 K | 263.9 ± 8.8
300.15 K | 264.6 ± 8.8
301.15 K | 265.1 ± 8.8
302.15 K | 265.8 ± 8.8
303.15 K | 267.1 ± 8.9
304.15 K | 267.9 ± 8.9
305.15 K | 268.5 ± 8.9
306.15 K | 269.4 ± 8.9
307.15 K | 269.8 ± 8.9
308.15 K | 271 ± 9
309.15 K | 271.7 ± 9
310.15 K | 272.4 ± 9
311.15 K | 273 ± 9.1
312.15 K | 273.7 ± 9.1
313.15 K | 274.7 ± 9.1
314.15 K | 275.1 ± 9.1
315.15 K | 275.7 ± 9.1
316.15 K | 276.4 ± 9.2
317.15 K | 277.3 ± 9.2
318.15 K | 278.2 ± 9.2
319.15 K | 279.1 ± 9.3
320.15 K | 279.6 ± 9.3
321.15 K | 280.3 ± 9.3
322.15 K | 281 ± 9
323.15 K | 281.5 ± 9.3
324.15 K | 282.2 ± 9.4
325.15 K | 283 ± 9.4
326.15 K | 283.9 ± 9.4
327.15 K | 284.4 ± 9.4
328.15 K | 284.8 ± 9.4
329.15 K | 285.4 ± 9.5
330.15 K | 286 ± 9.5
331.15 K | 286.7 ± 9.5
332.15 K | 287.3 ± 9.5
333.15 K | 288.1 ± 9.6
334.15 K | 288.9 ± 9.6
335.15 K | 289.6 ± 9.6
336.15 K | 290.2 ± 9.6
337.15 K | 290.6 ± 9.6
338.15 K | 291.2 ± 9.7
339.15 K | 292 ± 9.7
340.15 K | 292.5 ± 9.7
341.15 K | 293 ± 9.7
342.15 K | 293.6 ± 9.7
343.15 K | 294.2 ± 9.8
344.15 K | 295.2 ± 9.8
345.15 K | 295.7 ± 9.8
346.15 K | 296.3 ± 9.8
347.15 K | 296.9 ± 9.8
348.15 K | 297.5 ± 9.9
349.15 K | 298.1 ± 9.9
350.15 K | 298.3 ± 9.9
351.15 K | 298.8 ± 9.9
352.15 K | 299.2 ± 9.9
353.15 K | 300.7 ± 10
354.15 K | 300.8 ± 10
355.15 K | 301.7 ± 10
356.15 K | 302.8 ± 10
357.15 K | 303.4 ± 10
358.15 K | 303.8 ± 10
359.15 K | 303.9 ± 10
360.15 K | 304.5 ± 10
361.15 K | 305.3 ± 10
362.15 K | 305.7 ± 10
363.15 K | 306.1 ± 10
364.15 K | 307 ± 10
365.15 K | 307.7 ± 10
366.15 K | 308.4 ± 10
367.15 K | 308.6 ± 10
368.15 K | 308.9 ± 10
369.15 K | 309.5 ± 10
370.15 K | 310.3 ± 10
371.15 K | 311.1 ± 10
372.15 K | 311.6 ± 10
373.15 K | 311.8 ± 10
